# Reference: article PMC8258697 (The Journal of Biological Chemistry, 2021)
# Substitutions are numbered along the chain they refer to.
# Experiments:
# [1] = target: T1, PPARγ LBD (Homo sapiens, UniProt P37231); assay: Monomer cofactor recruitment HTRF assay: CBP-1 recruitment by isolated sGFP-PPARγ LBD; format: biochemical; details: titrated alone, or constant 10 μM against titrated rosiglitazone
# T1 construct: His10-tag with TEV site (N, cleaved yes); made in house; host or cells: E. coli T7 express (co-expressed with GroEL/ES)
# T1 sequence (P37231 234-505): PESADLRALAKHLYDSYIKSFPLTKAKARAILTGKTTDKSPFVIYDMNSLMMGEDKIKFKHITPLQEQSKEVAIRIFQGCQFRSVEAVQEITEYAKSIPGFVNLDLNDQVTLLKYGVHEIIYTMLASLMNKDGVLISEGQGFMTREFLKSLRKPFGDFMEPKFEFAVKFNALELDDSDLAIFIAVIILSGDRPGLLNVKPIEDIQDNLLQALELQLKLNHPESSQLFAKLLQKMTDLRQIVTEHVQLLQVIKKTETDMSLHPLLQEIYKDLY
# [2] = target: T2, RXRα LBD mutant (Homo sapiens, UniProt P19793, E453R/F450Y/K284E/V280T/V298T); assay: NCOR1 corepressor displacement HTRF assay on sGFP-RXRα mutant LBD; format: biochemical; details: 100 nM sGFP-RXRα mutant LBD, 12 nM NCOR1 ID2
# T2 construct: His10-tag with TEV site (N, cleaved yes); made in house; host or cells: E. coli T7 express (co-expressed with GroEL/ES)
# T2 sequence (P19793 226-462 V280T/K284E/V298T/F450Y/E453R): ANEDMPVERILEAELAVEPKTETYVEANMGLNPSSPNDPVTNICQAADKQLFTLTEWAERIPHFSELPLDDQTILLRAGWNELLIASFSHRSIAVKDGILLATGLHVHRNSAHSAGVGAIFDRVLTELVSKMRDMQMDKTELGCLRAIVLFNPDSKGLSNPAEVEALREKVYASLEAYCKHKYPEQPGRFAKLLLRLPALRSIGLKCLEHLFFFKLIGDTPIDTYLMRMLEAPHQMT
# [3] = target: T3, PPARγ:RXRα heterodimer (Homo sapiens, UniProt P19793+P37231); assay: PPARγ:RXRα heterodimer formation HTRF assay, sGFP-RXRα LBD titrated against biotinylated PPARγ LBD coupled to Tb-SA; format: binding; details: 10 μM ligand compared with no ligand
# T3 construct: His10-tag with TEV site (N, cleaved yes); made in house; host or cells: E. coli T7 express (co-expressed with GroEL/ES)
# T3 sequence (P37231 234-505): T1 sequence (P37231 234-505)
# T3 sequence (P19793 226-462): T2 sequence (P19793 226-462 V280T/K284E/V298T/F450Y/E453R) with T55V, E59K, T73V, Y225F, R228E
# [4] = test system: PPARγ LBD; assay: Two-dimensional titration of SR11237 and unlabeled mutant RXRα LBD: CBP-1 recruitment by sGFP-PPARγ LBD (HTRF); format: biochemical, human;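 further: mutant RXRα LBD carries mutations that block its own coactivator recruitment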
smiles,measurement,setting,value
CC1(C)CCC(C)(C)c2cc(C3(c4ccc(C(=O)O)cc4)OCCO3)ccc21 [SR11237],effect on CBP-1 recruitment by isolated PPARγ LBD,[1],neither activated recruitment of CBP-1 by PPARγ nor impaired rosiglitazone-mediated recruitment
same,effect on NCOR1 corepressor binding,[2],Agonist dependent displacement of NCOR1
same,effect on PPARγ:RXRα heterodimer formation,[3],significant stabilizing effect
same,HTRF mean; N=2,"[4]; SR11237 0.268435 nM, RXRα mutant LBD 0.976562 nM",7866
same,HTRF mean; N=2,"[4]; SR11237 0.268435 nM, RXRα mutant LBD 1.95312 nM",7838
same,HTRF mean; N=2,"[4]; SR11237 0.268435 nM, RXRα mutant LBD 3.90625 nM",7920
same,HTRF mean; N=2,"[4]; SR11237 0.268435 nM, RXRα mutant LBD 7.8125 nM",7909
same,HTRF mean; N=2,"[4]; SR11237 0.268435 nM, RXRα mutant LBD 31.25 nM",7903
same,HTRF mean; N=2,"[4]; SR11237 0.268435 nM, RXRα mutant LBD 62.5 nM",8248
same,HTRF mean; N=2,"[4]; SR11237 0.268435 nM, RXRα mutant LBD 250 nM",8688
same,HTRF mean; N=2,"[4]; SR11237 0.268435 nM, RXRα mutant LBD 500 nM",8760
same,HTRF mean; N=2,"[4]; SR11237 0.268435 nM, RXRα mutant LBD 1000 nM",8782
same,HTRF mean; N=2,"[4]; SR11237 0.671089 nM, RXRα mutant LBD 0.976562 nM",8003
same,HTRF mean; N=2,"[4]; SR11237 0.671089 nM, RXRα mutant LBD 1.95312 nM",7881
same,HTRF mean; N=2,"[4]; SR11237 0.671089 nM, RXRα mutant LBD 3.90625 nM",7929
same,HTRF mean; N=2,"[4]; SR11237 0.671089 nM, RXRα mutant LBD 7.8125 nM",7967
same,HTRF mean; N=2,"[4]; SR11237 0.671089 nM, RXRα mutant LBD 31.25 nM",8123
same,HTRF mean; N=2,"[4]; SR11237 0.671089 nM, RXRα mutant LBD 62.5 nM",8262
same,HTRF mean; N=2,"[4]; SR11237 0.671089 nM, RXRα mutant LBD 250 nM",8624
same,HTRF mean; N=2,"[4]; SR11237 0.671089 nM, RXRα mutant LBD 500 nM",8662
same,HTRF mean; N=2,"[4]; SR11237 0.671089 nM, RXRα mutant LBD 1000 nM",8739
same,HTRF mean; N=2,"[4]; SR11237 1.67772 nM, RXRα mutant LBD 0.976562 nM",7886
same,HTRF mean; N=2,"[4]; SR11237 1.67772 nM, RXRα mutant LBD 1.95312 nM",7834
same,HTRF mean; N=2,"[4]; SR11237 1.67772 nM, RXRα mutant LBD 3.90625 nM",7842
same,HTRF mean; N=2,"[4]; SR11237 1.67772 nM, RXRα mutant LBD 7.8125 nM",7973
same,HTRF mean; N=2,"[4]; SR11237 1.67772 nM, RXRα mutant LBD 31.25 nM",8258
same,HTRF mean; N=2,"[4]; SR11237 1.67772 nM, RXRα mutant LBD 62.5 nM",8301
same,HTRF mean; N=2,"[4]; SR11237 1.67772 nM, RXRα mutant LBD 250 nM",8705
same,HTRF mean; N=2,"[4]; SR11237 1.67772 nM, RXRα mutant LBD 500 nM",8706
same,HTRF mean; N=2,"[4]; SR11237 1.67772 nM, RXRα mutant LBD 1000 nM",8875
same,HTRF mean; N=2,"[4]; SR11237 10.4858 nM, RXRα mutant LBD 0.976562 nM",7841
same,HTRF mean; N=2,"[4]; SR11237 10.4858 nM, RXRα mutant LBD 1.95312 nM",7813
same,HTRF mean; N=2,"[4]; SR11237 10.4858 nM, RXRα mutant LBD 3.90625 nM",7835
same,HTRF mean; N=2,"[4]; SR11237 10.4858 nM, RXRα mutant LBD 7.8125 nM",7963
same,HTRF mean; N=2,"[4]; SR11237 10.4858 nM, RXRα mutant LBD 31.25 nM",8186
same,HTRF mean; N=2,"[4]; SR11237 10.4858 nM, RXRα mutant LBD 62.5 nM",8299
same,HTRF mean; N=2,"[4]; SR11237 10.4858 nM, RXRα mutant LBD 250 nM",8710
same,HTRF mean; N=2,"[4]; SR11237 10.4858 nM, RXRα mutant LBD 500 nM",8818
same,HTRF mean; N=2,"[4]; SR11237 10.4858 nM, RXRα mutant LBD 1000 nM",8916
same,HTRF mean; N=2,"[4]; SR11237 26.2144 nM, RXRα mutant LBD 0.976562 nM",7919
same,HTRF mean; N=2,"[4]; SR11237 26.2144 nM, RXRα mutant LBD 1.95312 nM",7957
same,HTRF mean; N=2,"[4]; SR11237 163.84 nM, RXRα mutant LBD 0.976562 nM",7969
same,HTRF mean; N=2,"[4]; SR11237 163.84 nM, RXRα mutant LBD 1.95312 nM",7882
